{"source": "paper PMC13104648", "about": "(Acta Pharmaceutica Sinica. B, 2025)", "key": {"[1]": {"test_system": "Sprague–Dawley rats", "assay": "Arterial blood pressure in anesthetized rats", "settings": "55 nmol/kg i.v."}, "[2]": {"test_system": "318 distinct 7TMRs", "assay": "PRESTO-Tango GPCRome panel", "assay_type": "cell-based, human", "settings": "10 μmol/L"}, "[3]": {"test_system": "rats", "settings": "chronic neuropathic and inflammatory pain paradigms; cited from earlier work"}, "[4]": {"test_system": "CHO-hNTSR1 cells", "assay": "Electric cell-substrate impedance sensing", "assay_type": "cell-based, Chinese hamster", "settings": "10 μmol/L; for maximum change factor (normalized resistance): 4000 Hz, n = 3 in duplicate"}, "[5]": {"target": "NTSR1 (β-arrestin 1) (Homo sapiens, UniProt P30989)", "sequence (P30989 whole entry)": "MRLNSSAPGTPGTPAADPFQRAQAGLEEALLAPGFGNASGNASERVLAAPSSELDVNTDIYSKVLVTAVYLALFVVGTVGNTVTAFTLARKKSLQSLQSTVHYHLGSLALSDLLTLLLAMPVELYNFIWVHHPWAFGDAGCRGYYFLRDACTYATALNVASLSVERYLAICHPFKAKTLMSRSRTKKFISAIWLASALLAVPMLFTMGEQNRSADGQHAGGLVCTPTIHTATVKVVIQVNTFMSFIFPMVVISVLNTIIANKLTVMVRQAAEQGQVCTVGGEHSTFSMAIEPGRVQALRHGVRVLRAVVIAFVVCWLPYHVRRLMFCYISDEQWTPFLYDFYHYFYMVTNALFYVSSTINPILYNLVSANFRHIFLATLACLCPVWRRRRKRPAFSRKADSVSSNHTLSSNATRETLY", "assay": "BRET^2 βarr recruitment, allosteric modulator assay", "assay_type": "cell-based", "settings": "pre-treatment up to 100 μmol/L"}, "[6]": {"target": "NTSR1 (β-arrestin 2) (Homo sapiens, UniProt P30989)", "sequence (P30989 whole entry)": "as above", "assay": "BRET^2 βarr recruitment, allosteric modulator assay", "assay_type": "cell-based", "settings": "pre-treatment up to 100 μmol/L"}, "[7]": {"target": "hNTSR1 (Gα13) (Homo sapiens, UniProt P30989)", "sequence (P30989 whole entry)": "as above", "assay": "BRET^2 G protein dissociation, allosteric modulator assay", "assay_type": "cell-based", "settings": "pre-treatment up to 100 μmol/L"}, "[8]": {"test_system": "mice", "settings": "cited from earlier work"}, "[9]": {"settings": "anesthetized male rats, mean ± SEM, n = 5"}, "[10]": {"settings": "anesthetized male rats, mean ± SEM"}}}
{"compound": "CC[C@H](C)[C@H](NC(=O)[C@H](Cc1ccc(O)cc1)NC(=O)[C@@H]1CCCN1C(=O)[C@H](CCCNC(=N)N)NC(=O)[C@@H](N)CCCNC(=N)N)C(=O)N[C@@H](CC(C)C)C(=O)O", "note": "[NT(8-13), Neurotensin (8-13), reference compound]", "values": [{"measurement": "ΔMABP 20 s post-injection", "setting": "[1]; [9]", "result": "−29 ± 3", "unit": "mm Hg"}, {"measurement": "ΔMABP 75 s post-injection", "setting": "[1]; [9]", "result": "−7 ± 3", "unit": "mm Hg"}, {"measurement": "ΔMABP 200 s post-injection", "setting": "[1]; [9]", "result": "−28 ± 6", "unit": "mm Hg"}]}
{"compound": "CCCCCCCCCCCCCCCC(=O)N[C@@H](C)C(=O)N[C@@H](CCCNC(=N)N)C(=O)N[C@@H](CCCCN)C(=O)N[C@@H](CCCCN)C(=O)N[C@@H](CO)C(=O)N[C@@H](CC(C)C)C(=O)N[C@@H](CCC(N)=O)C(=O)N[C@@H](CO)C(=O)N[C@@H](CC(C)C)C(=O)N[C@@H](CCC(N)=O)C(=O)N[C@@H](CO)C(=O)N[C@H](C(=O)N[C@H](C(=O)N[C@@H](Cc1c[nH]cn1)C(N)=O)C(C)C)[C@@H](C)O", "note": "[PP-001]", "values": [{"measurement": "βarr2 recruitment across a panel of 318 distinct 7TMRs", "setting": "[2]", "result": "did not induce βarr2 recruitment"}, {"measurement": "reversing nociceptive behaviors", "setting": "[3]", "result": "effective in reversing nociceptive behaviors in rats"}, {"measurement": "baseline-to-baseline timeframe", "setting": "[4]", "result": 45, "unit": "min"}, {"measurement": "time of maximum change factor post-stimulation", "setting": "[4]", "result": 1110, "unit": "s"}, {"measurement": "maximum change factor (normalized resistance)", "setting": "[4]; mean ± SEM", "result": "1.06 ± 0.01"}, {"measurement": "time at which the trace intercepts / returns to baseline", "setting": "[4]; post-stimulation", "result": 2700, "unit": "s"}, {"measurement": "delay in hypotensive response", "setting": "[1]", "result": 40, "unit": "s"}, {"measurement": "time of minimum ΔMABP post-injection", "setting": "[1]", "result": 105, "unit": "s"}, {"measurement": "minimum ΔMABP of first decline", "setting": "[1]; [10]", "result": "−37 ± 4", "unit": "mm Hg"}, {"measurement": "ΔMABP 300 s post-injection", "setting": "[1]; [10]", "result": "−25 ± 3", "unit": "mm Hg"}]}
{"compound": "CCCCCCCCCCCCCCCC(=O)O", "note": "[Palmitate, palmitate]", "values": [{"measurement": "effect on potency or efficacy of NT, βarr1", "setting": "[5]", "result": "not affected"}, {"measurement": "effect on potency or efficacy of NT, βarr2", "setting": "[6]", "result": "not affected"}, {"measurement": "effect on potency or efficacy of NT, Gα13", "setting": "[7]", "result": "not affected"}]}
{"compound": "COc1ccccc1C1CCN(c2nc(C3(F)CC3)nc3ccc(N(C)CCO)cc23)CC1", "note": "[SBI-553]", "values": [{"measurement": "hypotension", "setting": "[8]", "result": "does not induce hypotension in mice"}]}
{"compound": "CCCCCCCCCCCCCCCC(=O)N[C@@H](C)C(=O)N[C@@H](C)C(=O)N[C@@H](CCCCN)C(=O)N[C@@H](CCCCN)C(=O)N[C@@H](CO)C(=O)N[C@@H](CC(C)C)C(=O)N[C@@H](CCC(N)=O)C(=O)N[C@@H](CO)C(=O)N[C@@H](CC(C)C)C(=O)N[C@@H](CCC(N)=O)C(=O)N[C@@H](CO)C(=O)N[C@H](C(=O)N[C@H](C(=O)N[C@@H](Cc1c[nH]cn1)C(N)=O)C(C)C)[C@@H](C)O", "note": "[[Ala^2]PP-001]", "values": [{"measurement": "resistance response profile", "setting": "[4]", "result": "completely inactive"}, {"measurement": "change to MABP", "setting": "[1]; n = 5", "result": "no change to MABP was observed"}]}
{"compound": "CCCCCCCCCCCCCCCC(=O)N[C@@H](C)C(=O)N[C@@H](CCCNC(=N)N)C(=O)N[C@@H](CCCCN)C(=O)N[C@@H](CCCCN)C(=O)N[C@@H](CO)C(=O)N[C@@H](CC(C)C)C(=O)N[C@@H](CCC(N)=O)C(=O)N[C@@H](CO)C(=O)N[C@@H](CC(C)C)C(=O)N[C@@H](CCC(N)=O)C(=O)N[C@@H](CO)C(=O)N[C@H](C(=O)N[C@@H](C)C(=O)N[C@@H](Cc1c[nH]cn1)C(N)=O)[C@@H](C)O", "note": "[[Ala^13]PP-001]", "values": [{"measurement": "time of maximum change factor post-stimulation", "setting": "[4]", "result": 1962, "unit": "s"}, {"measurement": "maximum change factor (normalized resistance)", "setting": "[4]; mean ± SEM", "result": "1.06 ± 0.02"}, {"measurement": "change factor at 3000 s (50 min) post-stimulation", "setting": "[4]; mean ± SEM, n = 3", "result": "1.05 ± 0.03"}, {"measurement": "delay in hypotensive response", "setting": "[1]", "result": 40, "unit": "s"}, {"measurement": "time of minimum ΔMABP post-injection", "setting": "[1]", "result": 93, "unit": "s"}, {"measurement": "ΔMABP lower than that of PP-001 at 300 s", "setting": "[1]", "result": "19 ± 5", "unit": "mm Hg"}, {"measurement": "minimum ΔMABP of first decline", "setting": "[1]; [10]", "result": "−36 ± 4", "unit": "mm Hg"}, {"measurement": "ΔMABP 300 s post-injection", "setting": "[1]; [10]", "result": "−44 ± 2", "unit": "mm Hg"}, {"measurement": "ΔMABP 140 s post-administration", "setting": "[1]; n = 5", "result": "−31 ± 4", "unit": "mm Hg"}]}
